Assay results as given in patent US11000033B2, “Ketone or oxime compound, and herbicide” (NISSAN CHEMICAL CORPORATION, priority 2014, dated 2021).

Legend:
Type in all cases: in vivo
[1] = system: Scirpus juncoides; assay: Test Example 1: herbicidal activity, application before weed generation in submerged conditions (symbol B); settings: application herbicide amount 320 g/ha
Summary of the method: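 Weed control was rated three weeks after treatment on a 0–5 scale, from 5% or lower up to 90% or more. Pre-emergence water-surface application of diluted emulsion at a predetermined rate was made on the day of sowing, in flooded (4 cm water) pots containing rice seedlings, kept at 25–30 °C under glass.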

[2] = system: directly sowed rice plant; assay: Test Example 3: effect on crop by foliage application, Wagner pot (symbol b); settings: application herbicide amount 320 g/ha; for b (directly sowed rice plant) effect on crop grade: Table 24
Summary of the method: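 Alluvial soil in a 1/10000-are Wagner pot was flooded to a water depth of 0.1–0.5 cm. Echinochloa crus-galli var. crus-galli, Leptochloa chinensis, Cyperus difformis and rice were sown into it and grown in a greenhouse at 25–30 °C.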

[3] = system: Digitaria ciliaris; assay: Test Example 4: herbicidal effect by soil treatment (symbol F)
Summary of the method: (§1)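 Seeds were sown in sterilized diluvial soil, covered with about 1.5 cm of soil, and the soil surface was sprayed with a water-diluted emulsion of the compound at a predetermined rate. Plants grew in a greenhouse at 25° C. to 30° C.; effects were scored visually 3 weeks after application.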

[4] = system: Echinochloa crus-galli var. crus-galli; assay: Test Example 4: herbicidal effect by soil treatment (symbol H)
Summary of the method: as §1

[5] = system: Avena fatua; assay: Test Example 4: herbicidal effect by soil treatment (symbol I)
Summary of the method: as §1

[6] = system: Lolium multiflorum Lam.; assay: Test Example 4: herbicidal effect by soil treatment (symbol K)
Summary of the method: as §1

[7] = system: Chenopodium album; assay: Test Example 4: herbicidal effect by soil treatment (symbol O)
Summary of the method: as §1

[8] = system: rice; assay: Test Example 4: effect on crop by soil treatment (symbol b)
Summary of the method: (§2)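 Plants grew in a 25° C. to 30° C. greenhouse after spot-sowing of seeds, including beet, rapeseed, wheat and rice, into sterilized diluvial soil under roughly 1.5 cm of cover soil.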

[9] = system: rapeseed; assay: Test Example 4: effect on crop by soil treatment (symbol g)
Summary of the method: as §2

[10] = system: Digitaria ciliaris; assay: Test Example 5: herbicidal effect by foliage application, plastic box (symbol F); settings: 320 g/ha, 3 weeks after application
Summary of the method: (§3)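 Greenhouse foliar test: seedlings at 14 days, grown 25° C. to 30° C. in sterilized diluvial soil; compound applied as an aqueous dilution of an emulsion; response read 3 weeks after spraying.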

[11] = system: Avena fatua; assay: Test Example 5: herbicidal effect by foliage application, plastic box (symbol I); settings: 320 g/ha, 3 weeks after application
Summary of the method: as §3

[12] = system: Chenopodium album; assay: Test Example 5: herbicidal effect by foliage application, plastic box (symbol O); settings: 320 g/ha, 3 weeks after application
Summary of the method: as §3

[13] = system: Stellaria media; assay: Test Example 5: herbicidal effect by foliage application, plastic box (symbol P); settings: 320 g/ha, 3 weeks after application
Summary of the method: as §3

[14] = system: Veronica persica; assay: Test Example 5: herbicidal effect by foliage application, plastic box (symbol R); settings: 320 g/ha, 3 weeks after application
Summary of the method: as §3

[15] = system: corn; assay: Test Example 5: effect on crop by foliage application, plastic box (symbol c); settings: 320 g/ha, 3 weeks after application
Summary of the method: (§4)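 Plants were raised from seed in a greenhouse (25° C. to 30° C.) after sowing in a plastic box of sterilized diluvial soil.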

[16] = system: wheat; assay: Test Example 5: effect on crop by foliage application, plastic box (symbol e); settings: 320 g/ha, 3 weeks after application
Summary of the method: as §4

[17] = system: rapeseed; assay: Test Example 5: effect on crop by foliage application, plastic box (symbol g); settings: 320 g/ha, 3 weeks after application
Summary of the method: as §4

[18] = application herbicide amount 320 g/ha

Structure (SMILES) | B (Scirpus juncoides) herbicidal effect grade [1] | b (directly sowed rice plant) effect on crop grade [2] | Herbicidal effect grade, F: Digitaria ciliaris [3, 18] | Herbicidal effect grade, H: Echinochloa crus-galli var. crus-galli [4, 18] | Herbicidal effect grade, I: Avena fatua [5, 18] | Herbicidal effect grade, K: Lolium multiflorum Lam. [6, 18] | Herbicidal effect grade, O: Chenopodium album [7, 18] | Effect on crop grade, b: directly sowed rice plant [8, 18] | Effect on crop grade, g: rapeseed [9, 18] | F: Digitaria ciliaris, herbicidal effect grade [10] | I: Avena fatua, herbicidal effect grade [11] | O: Chenopodium album, herbicidal effect grade [12] | P: Stellaria media, herbicidal effect grade [13] | R: Veronica persica, herbicidal effect grade [14] | c: corn, effect on crop grade [15] | e: wheat, effect on crop grade [16] | g: rapeseed, effect on crop grade [17] | Herbicidal effect grade, B: Scirpus juncoides [1] | effect on crop b (directly sowed rice plant), grade 0-5 [2] | also measured
CON=C(CC1CC(O)=C(c2c(C)cc(-c3ccccc3)cc2C)C1=O)C1CC1 (mixture of isomers) [9-028] | 5 (Herbicidal ratio of 90% or more (almost completely withered)) | 5 (Herbicidal ratio of 90% or more (almost completely withered)) | 5 (Herbicidal ratio of 90% or more (almost completely withered)) | 5 (Herbicidal ratio of 90% or more (almost completely withered)) | 3 (Herbicidal ratio of 40% or higher and lower than 70%) | 5 (Herbicidal ratio of 90% or more (almost completely withered)) | 0 (Herbicidal ratio of 5% or lower (almost no effect)) | 3 (Herbicidal ratio of 40% or higher and lower than 70%) | 4 (Herbicidal ratio of 70% or higher and lower than 90%) | 5 (Herbicidal ratio of 90% or more (almost completely withered)) | 4 (Herbicidal ratio of 70% or higher and lower than 90%) | 2 (Herbicidal ratio of 20% or higher and lower than 40%) | 3 (Herbicidal ratio of 40% or higher and lower than 70%) | 4 (Herbicidal ratio of 70% or higher and lower than 90%) | 5 (Herbicidal ratio of 90% or more (almost completely withered)) | 4 (Herbicidal ratio of 70% or higher and lower than 90%) | 4 (Herbicidal ratio of 70% or higher and lower than 90%) |  |  | 
CON=C(C)CC1CC(OC(=O)c2cnoc2C2CC2)=C(c2c(C)cc(C)cc2C)C1=O (centres unmarked) [1-103] |  |  |  |  |  |  |  |  |  |  |  |  |  |  |  |  |  | 5 (Herbicidal ratio of 90% or more (almost completely withered)) | 5 (Herbicidal ratio of 90% or more (almost completely withered)) | F: Digitaria ciliaris, herbicidal effect grade ([3]; 320 g/ha): 5 (Herbicidal ratio of 90% or more (almost completely withered)); H: Echinochloa crus-galli var. crus-galli, herbicidal effect grade ([4]; 320 g/ha): 5 (Herbicidal ratio of 90% or more (almost completely withered)); I: Avena fatua, herbicidal effect grade ([5]; 320 g/ha): 3 (Herbicidal ratio of 40% or higher and lower than 70%); K: Lolium multiflorum Lam., herbicidal effect grade ([6]; 320 g/ha): 5 (Herbicidal ratio of 90% or more (almost completely withered)); O: Chenopodium album, herbicidal effect grade ([7]; 320 g/ha): 0 (Herbicidal ratio of 5% or lower (almost no effect)); b: directly sowed rice plant, effect grade on crop ([8]; 320 g/ha): 5 (Herbicidal ratio of 90% or more (almost completely withered)); g: rapeseed, effect grade on crop ([9]; 320 g/ha): 3 (Herbicidal ratio of 40% or higher and lower than 70%); F: Digitaria ciliaris, herbicidal effect (criteria 0-5) [10]: 5 (Herbicidal ratio of 90% or more (almost completely withered)); I: Avena fatua, herbicidal effect (criteria 0-5) [11]: 5 (Herbicidal ratio of 90% or more (almost completely withered)); O: Chenopodium album, herbicidal effect (criteria 0-5) [12]: 2 (Herbicidal ratio of 20% or higher and lower than 40%); P: Stellaria media, herbicidal effect (criteria 0-5) [13]: 2 (Herbicidal ratio of 20% or higher and lower than 40%); R: Veronica persica, herbicidal effect (criteria 0-5) [14]: 3 (Herbicidal ratio of 40% or higher and lower than 70%); c: corn, effect on crop (criteria 0-5) [15]: 5 (Herbicidal ratio of 90% or more (almost completely withered)); e: wheat, effect on crop (criteria 0-5) [16]: 5 (Herbicidal ratio of 90% or more (almost completely withered)); g: rapeseed, effect on crop (criteria 0-5) [17]: 4 (Herbicidal ratio of 70% or higher and lower than 90%)
CON=C(C)CC1CC(OS(C)(=O)=O)=C(c2c(C)cc(C)cc2C)C1=O (centres unmarked) [1-006] |  |  |  |  |  |  |  |  |  | 5 (Herbicidal ratio of 90% or more (almost completely withered)) | 5 (Herbicidal ratio of 90% or more (almost completely withered)) | 0 (Herbicidal ratio of 5% or lower (almost no effect)) | 0 (Herbicidal ratio of 5% or lower (almost no effect)) | 2 (Herbicidal ratio of 20% or higher and lower than 40%) | 3 (Herbicidal ratio of 40% or higher and lower than 70%) | 3 (Herbicidal ratio of 40% or higher and lower than 70%) | 3 (Herbicidal ratio of 40% or higher and lower than 70%) | 3 (Herbicidal ratio of 40% or higher and lower than 70%) | 5 (Herbicidal ratio of 90% or more (almost completely withered)) | F (Digitaria ciliaris) herbicidal effect grade [3, 18]: 5 (Herbicidal ratio of 90% or more (almost completely withered)); H (Echinochloa crus-galli var. crus-galli) herbicidal effect grade [4, 18]: 5 (Herbicidal ratio of 90% or more (almost completely withered)); I (Avena fatua) herbicidal effect grade [5, 18]: 3 (Herbicidal ratio of 40% or higher and lower than 70%); K (Lolium multiflorum Lam.) herbicidal effect grade [6, 18]: 5 (Herbicidal ratio of 90% or more (almost completely withered)); O (Chenopodium album) herbicidal effect grade [7, 18]: 0 (Herbicidal ratio of 5% or lower (almost no effect)); b (directly sowed rice plant) effect on crop grade [8, 18]: 5 (Herbicidal ratio of 90% or more (almost completely withered)); g (rapeseed) effect on crop grade [9, 18]: 0 (Herbicidal ratio of 5% or lower (almost no effect))
CC#Cc1cc(C)c(C2=C(O)CC(CC(=NOCCOC)C(C)C)C2=O)c(C)c1 (centres unmarked) [9-023] | 5 (Herbicidal ratio of 90% or more (almost completely withered)) | 5 (Herbicidal ratio of 90% or more (almost completely withered)) | 5 (Herbicidal ratio of 90% or more (almost completely withered)) | 5 (Herbicidal ratio of 90% or more (almost completely withered)) | 2 (Herbicidal ratio of 20% or higher and lower than 40%) | 3 (Herbicidal ratio of 40% or higher and lower than 70%) | 0 (Herbicidal ratio of 5% or lower (almost no effect)) | 5 (Herbicidal ratio of 90% or more (almost completely withered)) | 4 (Herbicidal ratio of 70% or higher and lower than 90%) | 5 (Herbicidal ratio of 90% or more (almost completely withered)) | 4 (Herbicidal ratio of 70% or higher and lower than 90%) | 3 (Herbicidal ratio of 40% or higher and lower than 70%) | 3 (Herbicidal ratio of 40% or higher and lower than 70%) | 3 (Herbicidal ratio of 40% or higher and lower than 70%) | 5 (Herbicidal ratio of 90% or more (almost completely withered)) | 1 (Herbicidal ratio of 5% or higher and lower than 20%) | 5 (Herbicidal ratio of 90% or more (almost completely withered)) |  |  | 
